The values that follow come from patent US20090306053A1, “Highly selective rho-kinase inhibitor” (priority 2005, published 2009).

Where a name gives a salt, the structure may show the parent alone.

What all share (format): biochemical
The target in one assay is ROCKII (Rho-kinase) (Homo sapiens, UniProt O75116). As to the kind of experiment: Rho-kinase (ROCKII) assay according to Patent Document 1. Also on record: key to Realative Inhibitory Activity ROCKII: relative ratio; ROCKII-inhibiting activity defined as 1.0. The settings on record: ROCKII-inhibiting activity defined as 1.0 (reference). On the procedure: An Rho-kinase assay was carried out according to the method described in Patent Document 1, and the concentration of a compound for inhibiting Rho-kinase activity by 50% (hereinafter referred to as “IC50 value”) was calculated.
Sequence of ROCKII (Rho-kinase) (O75116 whole entry, species assumed): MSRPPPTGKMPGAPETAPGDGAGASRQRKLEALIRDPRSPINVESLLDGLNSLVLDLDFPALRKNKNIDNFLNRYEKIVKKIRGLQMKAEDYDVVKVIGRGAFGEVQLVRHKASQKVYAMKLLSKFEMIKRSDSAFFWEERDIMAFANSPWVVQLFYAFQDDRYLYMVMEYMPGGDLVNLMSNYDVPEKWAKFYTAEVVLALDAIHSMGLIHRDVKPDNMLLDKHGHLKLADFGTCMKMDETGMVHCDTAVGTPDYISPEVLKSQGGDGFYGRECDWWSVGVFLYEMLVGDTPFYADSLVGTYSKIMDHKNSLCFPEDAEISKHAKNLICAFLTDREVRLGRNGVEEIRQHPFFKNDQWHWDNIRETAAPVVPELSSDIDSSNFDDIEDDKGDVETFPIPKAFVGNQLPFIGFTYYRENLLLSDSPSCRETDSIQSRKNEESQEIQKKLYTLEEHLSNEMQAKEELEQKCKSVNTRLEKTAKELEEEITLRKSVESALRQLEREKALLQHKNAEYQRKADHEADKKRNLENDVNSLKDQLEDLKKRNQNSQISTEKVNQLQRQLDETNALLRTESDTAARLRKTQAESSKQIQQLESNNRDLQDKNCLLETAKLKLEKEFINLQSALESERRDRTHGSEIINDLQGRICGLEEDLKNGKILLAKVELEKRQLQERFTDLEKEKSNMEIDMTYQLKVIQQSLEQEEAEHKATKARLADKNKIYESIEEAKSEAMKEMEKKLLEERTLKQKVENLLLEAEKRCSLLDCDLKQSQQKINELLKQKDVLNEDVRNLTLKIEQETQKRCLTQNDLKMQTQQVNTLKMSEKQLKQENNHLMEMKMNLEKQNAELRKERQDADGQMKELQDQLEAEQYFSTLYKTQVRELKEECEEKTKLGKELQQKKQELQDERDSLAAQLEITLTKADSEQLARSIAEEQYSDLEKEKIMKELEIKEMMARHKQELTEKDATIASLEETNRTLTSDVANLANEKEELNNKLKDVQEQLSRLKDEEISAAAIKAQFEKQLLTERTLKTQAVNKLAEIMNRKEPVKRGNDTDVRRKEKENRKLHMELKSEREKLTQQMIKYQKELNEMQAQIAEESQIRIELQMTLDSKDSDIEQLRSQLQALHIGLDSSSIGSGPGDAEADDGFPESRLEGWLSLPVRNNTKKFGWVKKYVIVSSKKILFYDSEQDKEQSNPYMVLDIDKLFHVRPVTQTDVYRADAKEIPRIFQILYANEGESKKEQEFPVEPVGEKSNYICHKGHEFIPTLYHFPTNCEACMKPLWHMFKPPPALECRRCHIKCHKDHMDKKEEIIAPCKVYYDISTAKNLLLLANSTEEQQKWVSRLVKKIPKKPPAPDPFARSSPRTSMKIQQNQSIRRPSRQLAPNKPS
(§1) The ROCKII-inhibiting activity of a compound to be tested was defined as 1.0, and the inhibitory activities of the compound against kinases (PKA, PKG, CaMKII, and AuroraA) other than ROCKII were calculated as relative ratios to the ROCKII-inhibiting activity, based on the IC50 values calculated using the above-described evaluation system.

Assay [1] deals with T1, Purified bovine PKA (catalyst subunit) (Bos taurus, UniProt P00517).
T1 construct: Purified bovine PKA (catalyst subunit, Promega); purchased Promega
As to the kind of experiment: PKA kinase assay (Kinase-Glo ATP consumption). The conditions noted are these: relative ratio to ROCKII (=1.0), based on IC50 values. As to the method:
Purified bovine PKA (catalyst subunit, Promega) was used to evaluate its activity to phosphorylate a substrate peptide (LRRASLG, Promega).
(§2) In a system of the total volume of 50 μL, the reaction of the above-mentioned enzyme (43 ng) was carried out at room temperature for 20 minutes in the presence of 40 mM of Tris-HCl (pH 7.5), 20 mM of magnesium chloride, 1 mg/mL of BSA, 5 μM of the above peptide, and 1 μM of ATP. After the kinase reaction, the luminescence intensity corresponding to the amount of ATP in the reaction system was measured using a luciferase reagent (Kinase-Glo Luminescent Kinase Assay kit, Promega) with a chemiluminescence measurement apparatus (MicroLumat, Berthold Technologies). The amount of ATP consumed by the phosphorylation reaction was calculated by comparison with the luminescence intensity in the system when the kinase reaction was not carried out.
(§3) With this system, the kinase reaction was carried out in the presence of a compound at various concentrations, and the IC50 value of the compound was determined based on the resulting compound concentration-response curve for ATP consumption.
as §1

The target in another assay is T2, Purified bovine PKGα (Bos taurus, UniProt P00516).
T2 construct: Purified bovine PKGα (Promega); purchased Promega
T2 sequence (P00516 1-671): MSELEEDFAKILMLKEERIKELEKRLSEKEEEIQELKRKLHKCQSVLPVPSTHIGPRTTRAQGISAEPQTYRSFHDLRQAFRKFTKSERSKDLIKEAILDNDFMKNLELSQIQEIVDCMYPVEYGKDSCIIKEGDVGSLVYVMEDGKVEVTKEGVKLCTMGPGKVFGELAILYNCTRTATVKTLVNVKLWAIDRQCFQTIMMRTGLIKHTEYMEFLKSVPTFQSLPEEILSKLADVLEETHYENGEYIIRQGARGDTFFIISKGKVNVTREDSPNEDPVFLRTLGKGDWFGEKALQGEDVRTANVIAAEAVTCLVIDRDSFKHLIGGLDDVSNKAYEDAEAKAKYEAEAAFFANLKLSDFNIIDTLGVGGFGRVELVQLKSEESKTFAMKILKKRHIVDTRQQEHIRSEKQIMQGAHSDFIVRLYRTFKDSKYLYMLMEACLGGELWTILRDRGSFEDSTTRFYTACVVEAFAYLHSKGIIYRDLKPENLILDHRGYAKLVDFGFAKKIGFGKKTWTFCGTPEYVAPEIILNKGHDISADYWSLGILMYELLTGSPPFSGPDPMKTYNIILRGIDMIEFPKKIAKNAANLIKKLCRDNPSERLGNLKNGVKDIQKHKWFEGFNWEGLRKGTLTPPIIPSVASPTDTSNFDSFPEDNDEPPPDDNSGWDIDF
As to the kind of experiment: PKG kinase assay (Kinase-Glo ATP consumption). The settings on record: relative ratio to ROCKII (=1.0), based on IC50 values. On the procedure: Purified bovine PKGα (Promega) was used to evaluate its activity to phosphorylate a substrate peptide (RKISASEF, Promega).
as §2, with “enzyme (64” for “enzyme (43”, “for 80” for “for 20”, “chloride, 10 μM” for “chloride, 1 mg/mL”, “of cGMP (Sigma), 100” for “of BSA, 5”
as §3, §1
A general note: Kinase-Glo reads ATP consumption through a luciferase reaction.

Another assay relates to Purified rat CaMKII. As to the kind of experiment: CaMKII kinase assay (Kinase-Glo ATP consumption). The conditions noted are these: relative ratio to ROCKII (=1.0), based on IC50 values. As to the method: Purified rat CaMKII (containing CaMKIIα and small amounts of β, γ, and δ isoforms, Upstate) was used to evaluate its activity to phosphorylate a substrate peptide (KKALRRQETVDAL, Upstate).
as §2, with “enzyme (33” for “enzyme (43”, “for 60” for “for 20”, “of 50” for “of 40”, “Tris-HCl (pH7.5), 10” for “Tris-HCl (pH 7.5), 20”, “chloride, 2 mM of calcium chloride, 0.04” for “chloride, 1”, “BSA, 16 μg/mL of purified bovine brain calmodulin (Sigma), 0.5 mM of DTT, 50 µM” for “BSA, 5 μM”
as §3, §1

For assay [2], the target named is T3, Recombinant human AuroraA (Homo sapiens, UniProt O14965).
T3 construct: purchased Upstate
T3 sequence (O14965 1-403): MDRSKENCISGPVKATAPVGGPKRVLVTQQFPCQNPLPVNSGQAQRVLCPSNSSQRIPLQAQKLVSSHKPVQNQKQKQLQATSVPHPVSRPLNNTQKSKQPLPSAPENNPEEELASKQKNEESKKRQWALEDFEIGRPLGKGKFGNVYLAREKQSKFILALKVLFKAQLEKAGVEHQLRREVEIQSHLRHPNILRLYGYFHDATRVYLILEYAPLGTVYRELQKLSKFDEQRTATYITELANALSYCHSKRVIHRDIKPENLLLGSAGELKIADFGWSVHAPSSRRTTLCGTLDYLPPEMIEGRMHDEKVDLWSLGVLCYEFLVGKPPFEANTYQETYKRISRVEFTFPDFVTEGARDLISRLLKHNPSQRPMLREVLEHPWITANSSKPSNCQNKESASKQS
As to the kind of experiment: AuroraA kinase assay (Kinase-Glo ATP consumption). Also on record: key to Realative Inhibitory Activity AuroraA: ratio relative to ROCKII-inhibiting activity defined as 1.0 (from IC50s). The settings on record: relative ratio to ROCKII (=1.0), based on IC50 values. As to the method:
Recombinant human AuroraA (Upstate) was used to evaluate its activity to phosphorylate a substrate peptide (LRRASLG, Promega) was evaluated.
as §2, with “enzyme (40” for “enzyme (43”, “for 80” for “for 20”, “of MOPS-NaOH” for “of Tris-HCl”, “chloride, 200” for “chloride, 1 mg/mL of BSA, 5”
as §3, §1

As for “2-(S)-4-(D-alanyl)-1-(4-fluoroisoquinoline-5-sulfonyl)-2-methylhomopiperazine dihydrochloride [Example 4]”, the “Realative Inhibitory Activity ROCKII” value on ROCKII (Rho-kinase) is listed as 1. The “Realative Inhibitory Activity PKA” value in assay [1] is more than 300. The “Realative Inhibitory Activity PKG” value on Purified bovine PKGα is listed as 93. Also, in the assay with Purified rat CaMKII, the “Realative Inhibitory Activity CaMKII” value came out at 300. Also, in assay [2], the “Realative Inhibitory Activity AuroraA” value is listed as more than 300.
Consider `C[C@H](N)C(=O)N1CCCN(S(O)(O)c2cccc3cncc(F)c23)[C@@H](C)C1` [Example 3, 2-(S)-4-(L-alanyl)-1-(4-fluoroisoquinoline-5-sulfonyl)-2-methylhomopiperazine dihydrochloride], for which the “Realative Inhibitory Activity ROCKII” value on ROCKII (Rho-kinase) turned out to be 1. Besides, the “Realative Inhibitory Activity PKA” value in assay [1] is given as more than 300. At Purified bovine PKGα, the “Realative Inhibitory Activity PKG” value is listed as 11. The “Realative Inhibitory Activity CaMKII” value in the assay on Purified rat CaMKII is reported as 135. Besides, in assay [2], the “Realative Inhibitory Activity AuroraA” value turned out to be 145.
As to `CC(C)[C@@H](N)C(=O)N1CCCN(S(O)(O)c2cccc3cncc(F)c23)[C@@H](C)C1` [Example 6, 2-(S)-1-(4-fluoroisoquinoline-5-sulfonyl)-2-methyl-4-(D-valyl)homopiperazine dihydrochloride], on ROCKII (Rho-kinase), the “Realative Inhibitory Activity ROCKII” value came out at 1. In assay [1], the “Realative Inhibitory Activity PKA” value was more than 300. Further, at Purified bovine PKGα, the “Realative Inhibitory Activity PKG” value stood at 30. In the assay with Purified rat CaMKII, the “Realative Inhibitory Activity CaMKII” value is on record as more than 300. Also, the “Realative Inhibitory Activity AuroraA” value in assay [2] is more than 300.
As for `CC[C@H](N)C(=O)N1CCCN(S(O)(O)c2cccc3cncc(F)c23)[C@@H](C)C1` [Example 11, 2-(S)-4-(L-α-aminobutylyl)-1-(4-fluoroisoquinoline-5-sulfonyl)-2-methylhomopiperazine dihydrochloride], the “Realative Inhibitory Activity ROCKII” value at ROCKII (Rho-kinase) was 1. Moreover, the “Realative Inhibitory Activity PKA” value in assay [1] was more than 300. Besides, the “Realative Inhibitory Activity PKG” value on Purified bovine PKGα amounted to 79. Further, in the assay on Purified rat CaMKII, the “Realative Inhibitory Activity CaMKII” value is given as 364. Moreover, the “Realative Inhibitory Activity AuroraA” value in assay [2] is 210.
The corresponding values for `CC[C@@H](N)C(=O)N1CCCN(S(O)(O)c2cccc3cncc(F)c23)[C@@H](C)C1` [Example 12, 2-(S)-4-(D-α-aminobutylyl)-1-(4-fluoroisoquinoline-5-sulfonyl)-2-methylhomopiperazine dihydrochloride] are 1, more than 300, 92, more than 300 and 244.
